Patent US20240425486A1, “FUSED BICYCLIC SUBSTITUTED N-(1H-INDOL-7-YL)BENZENESULFONAMIDES AND USES THEREOF” (Triana Biomedicines, Inc., priority 2021, published 2024)

How the values were obtained:
DCAF15/RBM39 = DCAF15/RBM39 (Homo sapiens (Human), UniProt Q14498+Q66K64); assay: AlphaLISA compound-induced DCAF15-RBM39 ternary complex formation; type: binding; details: His-tagged DCAF15 complex and biotin-carrying RBM39
Method: Example 7: Quantitative Evaluation of Compound-Induced Ternary Complex Formation Using Amplified Luminescent Proximity Homogeneous Assay
Compound-induced DCAF15-RBM39 ternary complex formation was monitored using AlphaLISA® assays (Perkin Elmer, Waltham, MA). Test compounds were first collected in a 384-well microplate (cat. #781280, Grenier Bio-One, Monroe, NC) as 2 mM stocks in 100% dimethyl sulfoxide (DMSO). These stocks were then serially diluted in DMSO by 3-fold into a new plate (cat. #781280, Grenier Bio-One, Monroe, NC) using a Mosquito HTS dispenser (Mosquito® HTS, SPT Labtech, Boston, MA). 0.2 μL of these diluted stocks were then dispensed into a 384-well Optiplate (cat. #6007290, Perkin Elmer, Waltham, MA) in duplicate wells, to assemble the final assay plate consisting of duplicated dose ranges. Separately, a protein mixture consisting of His-tagged DCAF15 complex and biotin-carrying RBM39, each at 408 nM (2.04×), was prepared in 50 mM HEPES, pH 7.5, 100 mM NaCl, 2 mM MgCl2, 0.1% BSA, 2 mM TCEP, 0.05% Tween-20 (dilution buffer). 9.8 μL of this protein mixture was then mixed with the compounds in the assay plate and incubated for one hour at room temperature. Reaction mixtures with no compounds added were included as negative controls, while a His-tagged and biotinylated GST protein was included to track general assay performance. Nickel Chelate AlphaLISA Acceptor beads (cat. #AL108M, Perkin Elmer, MA) and AlphaScreen Streptavidin Donor beads (cat. #6760002, Perkin Elmer, Waltham, MA) were prepared separately in the dilution buffer as 4× stocks (80 ug/ml). The beads were then added to the assay plate sequentially with incubation at room temperature for 1-2 hours after each addition. Signals were recorded using EnVision 2104 Multilabel Plate Reader (Perkin Elmer, Waltham, MA) and titration curves were generated in GraphPad Prism (7.00, GraphPad, La Jolla, CA).

DCAF15 = DCAF15 (Homo sapiens (Human), UniProt Q66K64); assay: HTRF competition assay, binary interaction with DCAF15; type: binding; details: competition with Alexa Fluor 647 tracer
Method: Example 8: Measurement of Binary Interaction Between Compounds and DCAF15 Using Homogeneous Time Resolved Fluorescence (HTRF)
DCAF15 interactions with test compounds were monitored using HTRF competition assays (Cisbio, Bedford, MA). Test compounds were first collected in a 384-well microplate (cat. #781280, Grenier Bio-One, Monroe, NC) as 10 mM stocks in 100% dimethyl sulfoxide (DMSO). A second stock plate (cat. #781280, Grenier Bio-One, Monroe, NC) was prepared through 3-fold serial dilution in DMSO of the afore-mentioned stocks using a Mosquito HTS dispenser (mosquito@ HTS, SPT Labtech, Boston, MA). 0.2 μL of these diluted stocks were then dispensed into a 384-well Optiplate (cat. #6007290, Perkin Elmer, Waltham, MA) in duplicate wells, to assemble the assay plate. The tracer molecule containing an Alexa Fluor 647 probe was prepared in 25 mM HEPES pH 7.5, 100 mM NaCl, 0.1 mg/ml BSA, 0.005% Tween 20, 0.5 mM TCEP (dilution buffer) to 612 nM (2.04×). Separately, His-tagged DCAF15 complex was prepared at 32 nM (4×) in the dilution buffer, and mAb Anti-6His-Eu cryptate Gold (cat. #61H12KLA, Cisbio, Bedford, MA) at 4× dilution in the detection buffer (cat. #61DB9RDF, Cisbio, Bedford, MA). These two solutions were mixed and incubated for 15 min at room temperature. 9.8 μL of the tracer solution and 10 μL of the DCAF15/mAb Anti-6His-Eu cryptate Gold mixture were added sequentially to each well in the assay plate. Reaction mixtures with no DCAF15 added were included as positive controls. The final mixture was incubated for an hour at room temperature and spun down briefly before data collection at 615 nm and 666 nm using EnVision 2104 Multilabel Plate Reader (Perkin Elmer, Bedford, MA). Binding was estimated based on ratiometric analysis and titration curves were generated in GraphPad Prism (7.00, GraphPad, La Jolla, CA).

RBM39 = RBM39 (Homo sapiens (Human), UniProt Q14498+Q66K64); assay: Western blot assay for degradation of RBM39 in HCT116 cells; type: cell-based; details: Incubation Time: 4 hours, read-out: RBM39 Degradation: IC50 (uM) [Incubation Time: 4 hours]
Method: Example 9: Western Blot Assay Procedure for Assessing Degradation of RBM39 in HCT116 Cells
HCT116 cells were used with passage numbers ranging from 13 to 25. Cells were seeded in 12-well plated at a density of 1 million cells per well in 1 mL cell culture medium containing McCoy's 5A medium (Cat. #16600082, ThermoFisher, Waltham, MA), 10% Fetal Bovine Serum (Cat. #26140, ThermoFisher, Waltham, MA) and 1% Pen-Strep (Cat. #. 15070063, ThermoFisher, Waltham, MA) and incubated overnight. The next morning, compounds were serially diluted (1:3, 9 points) in the medium separately and were prepared 2× the final assay concentration. Subsequently, 1.0 mL medium containing DMSO or the appropriate concentration of each compound was added to respective wells. The final DMSO concentration in each well was 0.1%. […] Cells were then washed once with 1 mL of ice cold Dulbecco's phosphate-buffered saline (Cat. #28374, ThermoFisher, Waltham, MA) and then lysed with 100 μl of lysis buffer containing 1×RIPA (Cat. #. 89900, ThermoFisher, Waltham, MA) and HALT protease and phosphatase inhibitor (Cat. #78442, ThermoFisher, Waltham, MA) on ice for 10 minutes with intermittent rocking. Lysates were then sonicated in a sonication bath (3 pulses of 10 sec each with 1 min incubation on ice between each pulse). Samples were then centrifuged for 20 min at 14,000 rpm for 20 min. Supernatants were then transferred to fresh microfuge tubes and stored frozen at −80° C. until use. Total protein quantitation in lysate samples was done using the BCA protein quantitation kit following the manufacturer's instructions. […] Band intensity in images was quantified using the Image Studio Lite software (Version 5.2). Signal intensity for RBM-39 specific bands were normalized using the signal intensity for […] band, and percent degradation was assessed by comparing RBM39 signal in compound-treated vs. DMSO-treated samples.

Compound | EC50 (DCAF15/RBM39) [nM] | IC50 (DCAF15) [µM] | DC50 (RBM39) [µM]
O=C1NCc2cc(S(=O)(=O)Nc3ccc(Cl)c4c(Cl)c[nH]c34)ccc2O1 [Compound 42, N-(3,4-dichloro-1H-indol-7-yl)-2-oxo-3,4-dihydro-2H-benzo[e][1,3]oxazine-6-sulfonamide] | ≤ 1000 | 1 to 10 | ≤ 1
O=S1(=O)Cc2ccc(S(=O)(=O)Nc3ccc(Cl)c4c(Cl)c[nH]c34)cc2C1 [Compound 17, N-(3,4-dichloro-1H-indol-7-yl)-1,3-dihydrobenzo[c]thiophene-5-sulfonamide 2,2-dioxide] | ≤ 1000 | 1 to 10 | ≤ 1
O=C1CCc2ccc(S(=O)(=O)Nc3ccc(Cl)c4c(Cl)c[nH]c34)cc21 [Compound 7] | ≤ 1000 | 1 to 10 | 
O=S(=O)(Nc1ccc(Cl)c2c(Cl)c[nH]c12)c1ccc2c(c1)OC(F)(F)O2 [Compound 18] | ≤ 1000 | 1 to 10 | 
O=C1OCCc2ccc(S(=O)(=O)Nc3ccc(Cl)c4c(Cl)c[nH]c34)cc21 [Compound 31] | ≤ 1000 | 1 to 10 | 
O=S(=O)(Nc1ccc(Cl)c2c(Cl)c[nH]c12)c1ccc2occc2c1 [Compound 11] | ≤ 1000 | 1 to 10 | 
O=C1NCCc2ccc(S(=O)(=O)Nc3ccc(Cl)c4c(Cl)c[nH]c34)cc21 [Compound 34] | 1000 to 10000 | 1 to 10 | 
O=C1NS(=O)(=O)c2ccc(S(=O)(=O)Nc3ccc(Cl)c4c(Cl)c[nH]c34)cc21 [Compound 23] | 1000 to 10000 | 1 to 10 | 
O=S(=O)(Nc1ccc(Cl)c2c(Cl)c[nH]c12)c1ccc2c(c1)CC[C@@H](C(F)F)O2 [Compound 29] | 1000 to 10000 | 10 to 100 | 
O=S(=O)(Nc1ccc(Cl)c2c(Cl)c[nH]c12)c1ccc2c(c1)CCCC2 [Compound 24] | 1000 to 10000 | > 100 | 
CC1(C)Cc2cc(S(=O)(=O)Nc3ccc(Cl)c4c(Cl)c[nH]c34)ccc2O1 [Compound 9] | 1000 to 10000 | > 100 | 
CN1Cc2cc(S(=O)(=O)Nc3ccc(Cl)c4c(Cl)c[nH]c34)ccc2OC1=O [Compound 41] | ≤ 1000 | 1 to 10 | 
O=C1CSc2ccc(S(=O)(=O)Nc3ccc(Cl)c4c(Cl)c[nH]c34)cc2N1 [Compound 44, N-(3,4-dichloro-1H-indol-7-yl)-3-oxo-3,4-dihydro-2H-benzo[b][1,4]thiazine-6-sulfonamide] | ≤ 1000 |  | ≤ 1
